Results taken from ChEMBL document CHEMBL3797190, “Development of 3,5-Dinitrobenzylsulfanyl-1,3,4-oxadiazoles and Thiadiazoles as Selective Antitubercular Agents Active Against Replicating and Nonreplicating Mycobacterium tuberculosis” (J Med Chem, 2016).
Values after ≈ are worked out from the molar mass of the structure shown. Active and inactive are the calls of the source. The rule behind the calls is not given here.

Columns and labels:
[1] = test system: Mycobacterium tuberculosis; test: Antimycobacterial activity against Mycobacterium tuberculosis H37Rv after 7 days by HTS assay; type: functional; conditions: 168 h
[2] = test system: Mycobacterium tuberculosis; test: Antimycobacterial activity against Mycobacterium tuberculosis H37Ra assessed as growth inhibition at 5 ug/ml preincubated for 1 hr followed by radiolabeling with [14C]-uracil, [14C]-methionine for 24 hrs; type: functional, organism-based
[3] = test system: Mycobacterium tuberculosis; test: Inhibition of proteosynthesis in Mycobacterium tuberculosis H37Ra assessed as reduction of [14C]-methionine incorporation at 5 ug/ml preincubated for 1 hr followed by radiolabeling with [14C]-methionine for 24 hrs by scintillation spectrometry; type: functional, organism-based
[4] = test system: Mycobacterium tuberculosis; test: Inhibition of RNA biosynthesis in Mycobacterium tuberculosis H37Ra assessed as reduction of [14C]-uracil incorporation at 5 ug/ml preincubated for 1 hr followed by radiolabeling with [14C]-uracil for 24 hrs by scintillation spectrometry; type: functional, organism-based
[5] = test system: Mycobacterium tuberculosis; test: Antimycobacterial activity against Mycobacterium tuberculosis CNCTC My 331/88 after 14 days by microdilution method; type: functional; conditions: CNCTC My 331/88, 336 h
Mycobacterium avium [6] = test: Antimycobacterial activity against Mycobacterium avium CNCTC My 330/88 after 14 days by microdilution method; type: functional; conditions: CNCTC My 330/88, 336 h
Mycobacterium kansasii [7] = test: Antimycobacterial activity against Mycobacterium kansasii CNCTC My 235/80 after 14 days by microdilution method; type: functional; conditions: CNCTC My 235/80, 336 h
Mycobacterium kansasii [8] = test: Antimycobacterial activity against Mycobacterium kansasii CNCTC My 6509/96 after 14 days by microdilution method; type: functional; conditions: CNCTC My 6509/96, 336 h
[9] = test system: Mycobacterium tuberculosis; test: Antimycobacterial activity against Mycobacterium tuberculosis CNCTC My 331/88 after 21 days by microdilution method; type: functional; conditions: CNCTC My 331/88, 504 h
Mycobacterium avium [10] = test: Antimycobacterial activity against Mycobacterium avium CNCTC My 330/88 after 21 days by microdilution method; type: functional; conditions: CNCTC My 330/88, 504 h
Mycobacterium kansasii [11] = test: Antimycobacterial activity against Mycobacterium kansasii CNCTC My 235/80 after 21 days by microdilution method; type: functional; conditions: CNCTC My 235/80, 504 h
Mycobacterium kansasii [12] = test: Antimycobacterial activity against Mycobacterium kansasii CNCTC My 6509/96 after 21 days by microdilution method; type: functional; conditions: CNCTC My 6509/96, 504 h
Mycobacterium kansasii [13] = test: Antimycobacterial activity against Mycobacterium kansasii CNCTC My 235/80 after 7 days by microdilution method; type: functional; conditions: CNCTC My 235/80, 168 h
Mycobacterium kansasii [14] = test: Antimycobacterial activity against Mycobacterium kansasii CNCTC My 6509/96 after 7 days by microdilution method; type: functional; conditions: CNCTC My 6509/96, 168 h
[15] = Cytotoxicity against human HuH7 cells assessed as cell viability after 24 hrs by MTS assay; type: cell-based; conditions: Huh-7, 24 h
[16] = Cytotoxicity against human HuH7 cells assessed as cell viability after 48 hrs by MTS assay; type: cell-based; conditions: Huh-7, 48 h
HeLa [17] = test: Cytotoxicity against human HeLa cells assessed as cell viability after 24 hrs by MTS assay; type: cell-based
HeLa [18] = test: Cytotoxicity against human HeLa cells assessed as cell viability after 48 hrs by MTS assay; type: cell-based
[19] = Cytotoxicity against MDCK2-MDR1 cells assessed as cell viability after 24 hrs by MTS assay; type: ADME, cell-based; conditions: Canis lupus familiaris, MDCK-II
[20] = Cytotoxicity against MDCK2-MDR1 cells assessed as cell viability after 48 hrs by MTS assay; type: ADME, cell-based; conditions: Canis lupus familiaris, MDCK-II
[21] = Cytotoxicity against human HuH7 cells assessed as cell viability at 20 uM after 24 hrs by MTS assay; type: cell-based, Huh-7; conditions: read-out: Activity
[22] = Cytotoxicity against human HuH7 cells assessed as cell viability at 20 uM after 48 hrs by MTS assay; type: cell-based, Huh-7; conditions: read-out: Activity
[23] = Cytotoxicity against human HeLa cells assessed as cell viability at 20 uM after 24 hrs by MTS assay; type: cell-based; conditions: read-out: Activity
[24] = Cytotoxicity against human HeLa cells assessed as cell viability at 20 uM after 48 hrs by MTS assay; type: cell-based; conditions: read-out: Activity
[25] = Cytotoxicity against MDCK2-MDR1 cells assessed as cell viability at 20 uM after 24 hrs by MTS assay; type: ADME, cell-based, Canis lupus familiaris, MDCK-II; conditions: dog, read-out: Activity
[26] = Cytotoxicity against MDCK2-MDR1 cells assessed as cell viability at 20 uM after 48 hrs by MTS assay; type: ADME, cell-based, Canis lupus familiaris, MDCK-II; conditions: dog, read-out: Activity
Candida albicans = test: Antifungal activity against Candida albicans ATCC 44859 after 24 to 48 hrs by broth microdilution method; type: functional
Candida tropicalis = test: Antifungal activity against Candida tropicalis 156 after 24 to 48 hrs by broth microdilution method; type: functional
Pichia kudriavzevii = test: Antifungal activity against Candida krusei E28 after 24 to 48 hrs by broth microdilution method; type: functional
Nakaseomyces glabratus = test: Antifungal activity against Candida glabrata 20/I after 24 to 48 hrs by broth microdilution method; type: functional
Trichosporon asahii = test: Antifungal activity against Trichosporon asahii 1188 after 24 to 48 hrs by broth microdilution method; type: functional
Aspergillus fumigatus = test: Antifungal activity against Aspergillus fumigatus 231 after 24 to 48 hrs by broth microdilution method; type: functional
Lichtheimia corymbifera = test: Antifungal activity against Absidia corymbifera 272 after 24 to 48 hrs by broth microdilution method; type: functional
[27] = test system: Trichophyton mentagrophytes; test: Antifungal activity against Trichophyton mentagrophytes 445 after 72 to 120 hrs by broth microdilution method; type: functional
Staphylococcus aureus [28] = test: Antibacterial activity against Staphylococcus aureus ATCC 6538 after 24 to 48 hrs by broth microdilution method; type: functional
Staphylococcus aureus [29] = test: Antibacterial activity against methicillin-resistant Staphylococcus aureus H 5996/08 after 24 to 48 hrs by broth microdilution method; type: functional
[30] = test system: Staphylococcus epidermidis; test: Antibacterial activity against Staphylococcus epidermidis H 6966/08 after 24 to 48 hrs by broth microdilution method; type: functional
Enterococcus faecalis = test: Antibacterial activity against Enterococcus faecalis J 14365/08 after 24 to 48 hrs by broth microdilution method; type: functional
Escherichia coli = test: Antibacterial activity against Escherichia coli ATCC 8739 after 24 to 48 hrs by broth microdilution method; type: functional
Klebsiella pneumoniae [31] = test: Antibacterial activity against Klebsiella pneumoniae D 11750/08 after 24 to 48 hrs by broth microdilution method; type: functional
Klebsiella pneumoniae [32] = test: Antibacterial activity against ESBL producing Klebsiella pneumoniae J 14368/08 after 24 to 48 hrs by broth microdilution method; type: functional
Pseudomonas aeruginosa = test: Antibacterial activity against Pseudomonas aeruginosa ATCC 9027 after 24 to 48 hrs by broth microdilution method; type: functional

COC(=O)CSc1nnc(-c2ccc(C(C)(C)C)cc2)s1
IC90 [1]: 0.62 µM

NC[C@H]1O[C@H](O[C@H]2[C@H](O)[C@@H](O[C@H]3O[C@H](CO)[C@@H](O)[C@H](N)[C@H]3O)[C@H](N)C[C@@H]2N)[C@H](O)[C@@H](O)[C@@H]1O
growth inhibition (GI) [2]: Active | inhibition [3]: Active | inhibition [4]: inactive

COc1ccc(-c2nnc(SCc3ccc([N+](=O)[O-])cc3[N+](=O)[O-])o2)cc1
MIC99 [5]: 0.5 µM (≈ 0.194 µg/mL) | MIC99 (Mycobacterium avium [6]): 4 µM (≈ 1.55 µg/mL) | MIC99 (Mycobacterium kansasii [7]): 8 µM (≈ 3.11 µg/mL) | MIC99 (Mycobacterium kansasii [8]): 8 µM (≈ 3.11 µg/mL) | MIC99 [9]: 1 µM (≈ 0.388 µg/mL) | MIC99 (Mycobacterium avium [10]): 4 µM (≈ 1.55 µg/mL) | MIC99 (Mycobacterium kansasii [11]): 16 µM (≈ 6.21 µg/mL) | MIC99 (Mycobacterium kansasii [12]): 16 µM (≈ 6.21 µg/mL) | MIC99 (Mycobacterium kansasii [13]): 2 µM (≈ 0.777 µg/mL) | MIC99 (Mycobacterium kansasii [14]): 2 µM (≈ 0.777 µg/mL) | IC50 [15]: > 20 µM | IC50 [16]: > 20 µM | IC50 (HeLa [17]): > 20 µM | IC50 (HeLa [18]): > 20 µM | IC50 [19]: > 20 µM | IC50 [20]: > 20 µM | viability at 24 h, 20 µM [21]: 85.1% | viability at 48 h, 20 µM [22]: 77% | viability at 24 h, 20 µM [23]: 89.9% | viability at 48 h, 20 µM [24]: 106% | viability at 24 h, 20 µM [25]: 87.9% | viability at 48 h, 20 µM [26]: 78.5% | MIC80 (Candida albicans): > 125 µM | MIC80 (Candida tropicalis): > 125 µM | MIC80 (Pichia kudriavzevii): > 125 µM | MIC80 (Nakaseomyces glabratus): > 125 µM | MIC80 (Trichosporon asahii): > 125 µM | MIC50 (Aspergillus fumigatus): > 125 µM | MIC50 (Lichtheimia corymbifera): > 125 µM | MIC50 [27]: > 125 µM | MIC95 (Staphylococcus aureus [28]): > 125 µM | MIC95 (Staphylococcus aureus [29]): > 125 µM | MIC95 [30]: > 125 µM | MIC95 (Enterococcus faecalis): > 125 µM | MIC95 (Escherichia coli): > 125 µM | MIC95 (Klebsiella pneumoniae [31]): > 125 µM | MIC95 (Klebsiella pneumoniae [32]): > 125 µM | MIC95 (Pseudomonas aeruginosa): > 125 µM

COc1ccc(-c2nnc(SCC(=O)NCCc3ccccc3)o2)cc1
IC90 [1]: 0.38 µM
